Test results: US10105339B2, “Ingenol derivatives in the reactivation of latent HIV” (priority 2012, dated 2018)

Legend:
CD4 HIV-1 receptor = experiment: Downregulation of CD4 receptor on human lymphocytes and monocytes/macrophages (flow cytometry); format: cell-based; settings: summary statement for lymphocytes and monocytes/macrophages (human and monkey cells tested)
From the text: It is verified in this test that ingenol derivatives of formula 1, when Z=Z2, at concentrations that activate HIV from latency in Jlat cells in example 3, downregulate the expression of CD4 cell receptor on the surface of HIV-human and SIV-pig-tail monkey CD4+T lymphocytes and macrophages. For this experiment PBMC cells from human and monkeys were isolated from peripheral blood with isolation through Ficoll-Hypaque density gradient (mixture of high density hydrophilic neutral polysaccharides that readily dissolves in aqueous solution. “Ficoll” is a trademark of GE Healthcare Bio-Sciences, USA). Thus, PBMC cells from human and monkeys, at concentration of 10^6 cells/mL, were cultured in RPMI medium with 10% fetal bovine serum for 24 hours and adhered cells (monocytes differentiating into macrophages) were separated from the cell supernatant which contained total lymphocytes. Those two distinct populations of cells were exposed to different concentrations of A, B and C derivatives of the invention, and left in culture for 72 hours. After exposure, the cells were stained with specific lymphocyte monoclonals (anti-CD3) and monocytes/macrophages (anti-CD14) simultaneously with an anti-CD4. Thus, the cells were centrifuged at 1000 G for 3 minutes and washed with the same PBS volume (without Ca^2+ and Mg^2+, Cat. No. 9240, Irvine Scientific, USA) containing 2% fetal bovine serum. This wash was repeated 3 times and the cells were suspended in 1×PBS containing a 1/1000 dilution of relevant antibodies and left to incubate for 30 min at 4° C. until being read in flow cytometry. After incubation, 30,000 cells were read in a BD-Excalibur flow cytometer (from Beckton Dickinson and co., USA) and the populations were separated and the CD4 receptor density was estimated at different concentrations of the B derivative, assuming cell density without B derivative as 100%. […]

[1] = test system: HIV-1 latent virus in PBMC cells of patient; experiment: Activation of latent HIV in PBMC from patient under anti-retroviral treatment (semi-nested real time PCR of intracellular vRNA); format: cell-based; settings: 72 hours
Method: It was tested, in this experiment, the ability of ingenol derivative, of formula I, wherein Z=Z2, mentioned as B, of activating latent cells from patients who were already under anti-retroviral treatment for more than 1 year with undetectable viral load. A patient (identified as MLV) was selected, which had already been under treatment with zidovudine+lamivudine (AZT+3TC) and efavirenz for over 14 months, with undetectable viral load and CD4>500 cells/mm^3. 20 mL of blood was collected from the patient in a EDTA (ethylene diamine tetra acetic acid) tube and PBMC cells were isolated, which were placed in RPMI culture medium with 10% fetal bovine serum and 50 IU/mL of IL2 (interleukin 2), and grown in 2 bottles with 5 mL of identical cells (106/mL) with different selective compositions. 10 μM efavirenz (antiviral) was added to the control bottle to block viral replication that would eventually arise from cultured cells. In another test bottle both efavirenz (10 μM) and the B derivative of the invention (1 μM) were included. […]

| SMILES | downregulation of the main HIV receptor (CD4) on the surface of infection targeted cells (CD4 HIV-1 receptor) | intracellular HIV-1 vRNA ([1]; 1 μM B derivative plus 10 μm efavirenz, FIG. 8) | intracellular HIV-1 vRNA ([1]; 10 μM efavirenz alone (control bottle), FIG. 7) |
| --- | --- | --- | --- |
| CC1=CC23C(=O)C(C=C(CO)C(O)C2(O)C1OC(=O)/C=C/c1ccccc1)C1C(CC3C)C1(C)C (centres unmarked) [A, Ingenol 3-cinnamate] | able to downregulate | – | – |
| CCCCCC(=O)OC1C(C)=CC23C(=O)C(C=C(CO)C(O)C12O)C1C(CC3C)C1(C)C (centres unmarked) [B, Ingenol 3-caproate] | able to downregulate | emergence of intracellular HIV-1 vRNA | – |
| CCCCCCCCCCCC(=O)OC1C(C)=CC23C(=O)C(C=C(CO)C(O)C12O)C1C(CC3C)C1(C)C (centres unmarked) [C, ingenol 3-dodecanoate] | able to downregulate | – | – |
| O=C1Nc2ccc(Cl)cc2[C@@](C#CC2CC2)(C(F)(F)F)O1 [efavirenz, reference compound] | – | – | did not produce intracellular vRNA |
